The source of these data is ChEMBL document CHEMBL4602719, “Discovery of Potent, Selective, and Orally Bioavailable Inhibitors of USP7 with In Vivo Antitumor Activity” (J Med Chem, 2020).

Active and inactive are the calls of the source. The calls are words filed in the database; no cut-off is given here.

Data set [1] addresses T1, Ubiquitin carboxyl-terminal hydrolase 1 (Homo sapiens, UniProt O94782).
T1 sequence (O94782 whole entry): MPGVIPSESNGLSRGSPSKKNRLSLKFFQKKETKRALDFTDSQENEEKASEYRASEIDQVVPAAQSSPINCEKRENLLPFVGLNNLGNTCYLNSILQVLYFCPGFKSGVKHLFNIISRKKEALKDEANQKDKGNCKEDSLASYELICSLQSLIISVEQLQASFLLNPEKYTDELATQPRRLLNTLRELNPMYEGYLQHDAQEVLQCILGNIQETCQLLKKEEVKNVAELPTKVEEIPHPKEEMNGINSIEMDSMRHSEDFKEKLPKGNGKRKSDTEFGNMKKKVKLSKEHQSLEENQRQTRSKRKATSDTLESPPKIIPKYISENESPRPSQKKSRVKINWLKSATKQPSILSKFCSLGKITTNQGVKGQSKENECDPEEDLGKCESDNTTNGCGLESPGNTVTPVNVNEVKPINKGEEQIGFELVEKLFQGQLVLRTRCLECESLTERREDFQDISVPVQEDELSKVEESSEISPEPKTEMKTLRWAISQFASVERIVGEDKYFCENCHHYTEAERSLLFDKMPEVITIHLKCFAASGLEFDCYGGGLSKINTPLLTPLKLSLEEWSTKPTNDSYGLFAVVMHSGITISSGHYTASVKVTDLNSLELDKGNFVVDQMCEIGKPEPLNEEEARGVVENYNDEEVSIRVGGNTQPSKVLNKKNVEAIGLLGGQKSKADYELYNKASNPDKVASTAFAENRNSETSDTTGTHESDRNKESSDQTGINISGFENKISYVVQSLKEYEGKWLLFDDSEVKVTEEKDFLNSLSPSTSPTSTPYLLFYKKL
Description: Inhibition of His6-tagged human USP1 expressed in insect Sf21 cells coexpressing untagged UAF1 assessed as cleavage of Ubiquitin-Rhodamine110-glycine to Ubiquitin and Rhodamine110-glycine using Ubiquitin-Rhodamine110-glycine as substrate by fluorescence based analysis.

The target of data set [2] is T2, Ubiquitin carboxyl-terminal hydrolase 47 (Homo sapiens, UniProt Q96K76).
T2 sequence (Q96K76 whole entry): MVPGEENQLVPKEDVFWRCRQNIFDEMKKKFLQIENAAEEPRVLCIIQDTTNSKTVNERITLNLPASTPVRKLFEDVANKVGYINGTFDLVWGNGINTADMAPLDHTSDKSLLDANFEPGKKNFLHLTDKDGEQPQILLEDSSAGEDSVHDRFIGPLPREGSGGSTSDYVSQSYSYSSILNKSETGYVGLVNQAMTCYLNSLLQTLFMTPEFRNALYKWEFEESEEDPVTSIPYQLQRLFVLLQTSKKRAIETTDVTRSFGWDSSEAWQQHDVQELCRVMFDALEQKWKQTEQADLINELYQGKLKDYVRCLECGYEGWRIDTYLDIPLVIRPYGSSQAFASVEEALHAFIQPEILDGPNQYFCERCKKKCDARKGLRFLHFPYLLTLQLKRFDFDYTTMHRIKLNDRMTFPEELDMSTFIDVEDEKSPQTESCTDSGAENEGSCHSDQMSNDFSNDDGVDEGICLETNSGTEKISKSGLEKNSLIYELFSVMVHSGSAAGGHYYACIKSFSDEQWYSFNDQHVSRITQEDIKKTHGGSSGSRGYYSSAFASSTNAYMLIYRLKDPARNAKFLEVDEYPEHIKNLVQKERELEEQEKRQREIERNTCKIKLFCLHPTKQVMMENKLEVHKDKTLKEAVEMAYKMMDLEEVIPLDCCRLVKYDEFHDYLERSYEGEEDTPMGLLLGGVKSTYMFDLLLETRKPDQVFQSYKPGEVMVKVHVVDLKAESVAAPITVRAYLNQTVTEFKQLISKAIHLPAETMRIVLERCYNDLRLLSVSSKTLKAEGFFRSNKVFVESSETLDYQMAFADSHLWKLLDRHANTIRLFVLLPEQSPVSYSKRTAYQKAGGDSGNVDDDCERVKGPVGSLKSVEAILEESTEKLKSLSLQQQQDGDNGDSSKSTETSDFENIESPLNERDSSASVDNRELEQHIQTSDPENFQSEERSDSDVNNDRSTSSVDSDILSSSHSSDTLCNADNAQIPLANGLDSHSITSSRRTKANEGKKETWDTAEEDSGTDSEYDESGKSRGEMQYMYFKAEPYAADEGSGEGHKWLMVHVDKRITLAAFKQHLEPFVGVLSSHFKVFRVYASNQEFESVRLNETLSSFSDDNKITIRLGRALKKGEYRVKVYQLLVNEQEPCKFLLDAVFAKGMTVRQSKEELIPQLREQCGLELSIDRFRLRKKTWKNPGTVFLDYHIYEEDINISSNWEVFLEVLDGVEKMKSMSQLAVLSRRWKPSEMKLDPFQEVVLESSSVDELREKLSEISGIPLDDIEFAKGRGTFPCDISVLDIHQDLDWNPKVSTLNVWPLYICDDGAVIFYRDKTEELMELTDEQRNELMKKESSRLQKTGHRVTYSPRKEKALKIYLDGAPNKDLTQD
The experiment in a line: Inhibition of USP47 (unknown origin) by biochemical assay.

The target of data set [3] is T3, Ubiquitin carboxyl-terminal hydrolase isozyme L3 (Homo sapiens, UniProt P15374).
T3 sequence (P15374 whole entry): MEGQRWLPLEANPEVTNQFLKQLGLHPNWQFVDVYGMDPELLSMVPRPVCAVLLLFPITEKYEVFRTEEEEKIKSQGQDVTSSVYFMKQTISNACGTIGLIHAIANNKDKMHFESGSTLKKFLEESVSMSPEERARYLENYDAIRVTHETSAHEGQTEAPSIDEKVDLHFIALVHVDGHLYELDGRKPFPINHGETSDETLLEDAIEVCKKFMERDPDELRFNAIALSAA
Description: Inhibition of human GST-tagged UCHL3 expressed in Escherichia coli assessed as cleavage of Ubiquitin-Rhodamine110-glycine to Ubiquitin and Rhodamine110-glycine using Ubiquitin-Rhodamine110-glycine as substrate by fluorescence based analysis.

The subject of data set [4] is MM1.S. The experiment in a line: Antitumor activity against human MM1S cells xenografted in NOD/SCID mouse assessed as tumor growth inhibition at 50 mg/kg, po administered twice daily and measured twice per week relative to control. Format: functional. To be noted: read-out: TGI. In general terms: A xenograft is tissue or cells of one species grown in another, often human tumour cells in immunodeficient mice.

For data set [5], the target named is T4, Ubiquitin carboxyl-terminal hydrolase 7 (Homo sapiens, UniProt Q93009). Description: Inhibition of recombinant full length USP7 (unknown origin) using ubiquintin-rhodamine as substrate preincubated for 30 mins followed by substrate addition measured after 1 hr by fluorescence-based Envision plate reader assay.
Data set [6] deals with T4, Ubiquitin carboxyl-terminal hydrolase 7. The experiment in a line: Inhibition of USP7 in human RKO cells transfected with p53 luciferase reporter vector assessed as increase in p53-dependent luciferase activity measured after 18 hrs by BrightGlo luciferase assay. Type of data set: cell-based. (In general: In a reporter assay the amount or activity of a reporter protein is the signal.)

In data set [7] the test system is MM1.S. The experiment in a line: Cytotoxicity against human MM1S cells expressing wild type p53 assessed as reduction in cell viability measured after 5 days by CellTiter-Glo assay. Type of data set: functional. To be noted: 120 h. (In general: In ATP-based viability assays light output follows the ATP content of the culture.)
Data set [8] deals with NCI-H526. Description: Cytotoxicity against human NCI-H526 cells expressing p53 mutant assessed as reduction in cell viability measured after 5 days by CellTiter-Glo assay. Format: functional. The conditions noted are these: NCI-H526, 120 h.
A short description of data set [9]: Cytotoxicity against human RKO cells assessed as reduction in cellular ATP level measured after 5 days by CellTiter-Glo assay. Format: cell-based.
For data set [10], the target named is Voltage-gated inwardly rectifying potassium channel KCNH2 (Homo sapiens, UniProt Q12809). The experiment in a line: Inhibition of human ERG.
Data set [11] can be described thus: AUC in BALB/c mouse at 30 mg/kg, po. Format: ADME, organism-based. To be noted: in vivo.
Data set [12] is described as follows: AUC in NOD/SCID mouse at 30 mg/kg, po. The conditions noted are these: in vivo. Format: ADME, organism-based.
The nature of data set [13]: AUC in nude mouse at 30 mg/kg, po. Format: ADME, organism-based. The conditions noted are these: in vivo.
Data set [14] is described as follows: Protein binding in mouse plasma by ultracentrifugation method. Type of data set: ADME, cell-free. The conditions noted are these: read-out: PPB (converted).
Data set [15] is described as follows: Toxicity in NOD/SCID mouse xenografted with human MM1S cells assessed as decrease in body weight at 50 mg/kg, po administered twice daily and measured twice per week relative to control. Format: organism-based. Also noted: scale not given: the % may be the effect or the level left. To be noted: in vivo.
In data set [16] the test system is NCI-H526. The conditions noted are these: Homo sapiens.
Description: Antitumor activity against human NCI-H526 cells xenografted in athymic nu/nu mouse assessed as tumor growth inhibition at 50 mg/kg, po administered twice daily for 24 days and measured twice per week

T4 sequence (Q93009 whole entry): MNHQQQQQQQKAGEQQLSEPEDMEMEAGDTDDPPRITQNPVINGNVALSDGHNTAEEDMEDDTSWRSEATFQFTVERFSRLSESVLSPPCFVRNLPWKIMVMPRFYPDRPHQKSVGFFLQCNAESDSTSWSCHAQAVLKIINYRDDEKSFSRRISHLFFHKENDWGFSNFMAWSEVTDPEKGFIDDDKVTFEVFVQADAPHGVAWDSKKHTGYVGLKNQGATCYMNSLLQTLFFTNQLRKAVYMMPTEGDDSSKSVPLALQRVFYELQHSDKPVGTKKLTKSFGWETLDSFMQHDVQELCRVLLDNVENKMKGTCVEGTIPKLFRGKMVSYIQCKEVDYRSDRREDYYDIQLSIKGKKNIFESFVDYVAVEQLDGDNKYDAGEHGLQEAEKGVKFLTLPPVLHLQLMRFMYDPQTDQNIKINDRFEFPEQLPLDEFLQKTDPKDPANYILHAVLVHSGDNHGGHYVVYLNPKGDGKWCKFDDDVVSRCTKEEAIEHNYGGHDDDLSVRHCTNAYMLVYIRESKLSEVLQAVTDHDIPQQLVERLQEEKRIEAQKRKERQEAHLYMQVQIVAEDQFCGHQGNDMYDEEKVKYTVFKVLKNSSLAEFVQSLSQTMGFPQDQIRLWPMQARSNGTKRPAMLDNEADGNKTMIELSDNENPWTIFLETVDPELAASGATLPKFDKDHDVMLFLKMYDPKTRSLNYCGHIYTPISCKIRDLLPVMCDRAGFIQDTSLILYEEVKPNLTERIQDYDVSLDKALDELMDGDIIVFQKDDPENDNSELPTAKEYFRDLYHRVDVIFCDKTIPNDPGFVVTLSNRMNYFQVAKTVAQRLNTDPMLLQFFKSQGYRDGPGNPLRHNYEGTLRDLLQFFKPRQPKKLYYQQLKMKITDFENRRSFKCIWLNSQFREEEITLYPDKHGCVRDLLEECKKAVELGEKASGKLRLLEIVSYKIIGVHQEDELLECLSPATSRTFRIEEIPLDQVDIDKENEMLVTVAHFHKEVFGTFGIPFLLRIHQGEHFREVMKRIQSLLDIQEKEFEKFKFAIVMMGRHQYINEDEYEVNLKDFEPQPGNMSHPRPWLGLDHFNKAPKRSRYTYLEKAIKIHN
Sequence of Voltage-gated inwardly rectifying potassium channel KCNH2 (Q12809 whole entry): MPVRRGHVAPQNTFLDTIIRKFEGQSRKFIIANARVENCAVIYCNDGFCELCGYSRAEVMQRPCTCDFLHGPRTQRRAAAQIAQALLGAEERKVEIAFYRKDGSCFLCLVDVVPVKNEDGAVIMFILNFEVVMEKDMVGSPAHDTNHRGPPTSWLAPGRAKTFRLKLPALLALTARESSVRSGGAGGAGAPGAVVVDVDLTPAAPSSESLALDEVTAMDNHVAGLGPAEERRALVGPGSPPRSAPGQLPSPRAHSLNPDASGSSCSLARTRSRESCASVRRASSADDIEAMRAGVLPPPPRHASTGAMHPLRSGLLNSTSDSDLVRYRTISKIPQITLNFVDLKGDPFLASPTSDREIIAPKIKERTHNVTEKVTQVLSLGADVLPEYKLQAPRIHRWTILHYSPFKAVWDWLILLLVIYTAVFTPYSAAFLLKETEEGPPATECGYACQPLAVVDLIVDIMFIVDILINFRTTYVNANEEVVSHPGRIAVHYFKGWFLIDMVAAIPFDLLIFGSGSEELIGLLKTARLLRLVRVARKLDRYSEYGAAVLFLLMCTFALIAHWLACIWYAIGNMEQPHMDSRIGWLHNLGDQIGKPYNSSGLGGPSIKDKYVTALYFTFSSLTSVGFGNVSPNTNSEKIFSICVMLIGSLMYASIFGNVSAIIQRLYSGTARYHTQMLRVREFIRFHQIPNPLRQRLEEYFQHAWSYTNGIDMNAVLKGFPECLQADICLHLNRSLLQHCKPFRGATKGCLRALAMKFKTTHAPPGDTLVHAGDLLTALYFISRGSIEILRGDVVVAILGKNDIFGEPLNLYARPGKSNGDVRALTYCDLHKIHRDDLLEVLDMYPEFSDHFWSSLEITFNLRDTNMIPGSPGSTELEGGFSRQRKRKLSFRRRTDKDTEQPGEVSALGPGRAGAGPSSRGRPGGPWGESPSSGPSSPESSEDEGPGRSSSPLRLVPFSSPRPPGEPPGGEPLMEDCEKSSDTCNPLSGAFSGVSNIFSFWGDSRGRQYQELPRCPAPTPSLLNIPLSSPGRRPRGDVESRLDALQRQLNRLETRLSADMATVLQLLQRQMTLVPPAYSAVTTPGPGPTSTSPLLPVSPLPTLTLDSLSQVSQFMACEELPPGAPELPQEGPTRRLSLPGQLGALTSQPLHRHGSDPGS

As for `CC(Cc1ccccc1)C(=O)N1CCC(O)(Cn2cnc3ccccc3c2=O)CC1` (stereo not given), the half-inhibitory concentration (IC50) in data set [1], in data set [2] and in [3] was over 80 µM in each case.
`Cc1cc(Cl)cc(-c2ccnc3cc(CN4C(=O)C5C(C4=O)C5(C)C)sc23)c1C[C@@H]1CNCCO1` (stereo not given in full): the inhibition in vivo at 50 mg/kg in the data set on MM1.S [4] is 100%. In addition, the IC50 was found to be 0.00044 µM in [5] and 4.2 µM in data set [10]. The EC50 in data set [6] stood at 0.025 µM. The cytotoxic concentration (CC50) in the data set with MM1.S [7] stood at 0.089 µM; in the data set on NCI-H526 [8], 0.45 µM. Moreover, the half-maximal cytotoxic concentration (CC50) at 120 h in data set [9] is 13 µM. Also, the values for the exposure (AUC) in data set [11], in data set [12] and in data set [13] were 9400 ng·h/mL, 5500 ng·h/mL and 4600 ng·h/mL, respectively. Besides, the fraction unbound in [14] is 0.047. In data set [15], the Activity is on record as under 90%. Besides, the TGI result in the data set on NCI-H526 [16] was “Active”.
As for `Nc1cc(-c2cc(Cl)cc3c2OC(C(=O)N2CCNCC2)C3)ccn1` (racemic), the 50% inhibitory concentration (IC50) in data set [5] is 5.6 µM; in data set [1], over 80 µM; in data set [2] it was over 80 µM; in data set [3] it was over 80 µM.
On to `Cc1cc(Cl)cc(-c2ccnc3cc(CN4C(=O)C5CC5C4=O)sc23)c1C[C@@H]1CNCCO1` (stereo not given in full), for which the IC50 in data set [5] came to 0.00016 µM; in data set [10] it was 8 µM. In addition, the concentration giving a half-maximal response (EC50) in [6] was 0.035 µM. The results for the CC50 with MM1.S [7] and with NCI-H526 [8] were 0.21 µM and 3.6 µM, respectively.
The matching figures for `Cc1cc(Cl)cc(-c2ccnc3cc(CN4C(=O)CCC4=O)sc23)c1CN1[C@@H](C)CNC[C@@H]1C`: 0.00032 µM, 2.7 µM, 0.06 µM, 0.135 µM and 2.2 µM.

Broadly, the IC50 is the concentration that gives 50% inhibition. What is called EC50 is the concentration at which the effect is half-maximal. By CC50 is commonly meant the concentration that lowers cell viability or growth by half. Usually AUC stands for concentration integrated over time.
